Values of other authors as cited in patent EP0622459A1, “Fused proteins for preparing vasoactive intestinal polypeptide analogs, method of preparing same and recombinant plasmids and transformant microorganisms” (SANWA KAGAKU KENKYUSHO CO., LTD., priority 1993, dated 1994).
Ends that are not written are not given here.

Settings: prior-art analogs, result in words

Leu¹⁷-VIP-OH: genetically engineered VIP analog of the prior art (JP-A-1-296996 and JP-A-3-280893) (HSDAVFTDNYTRLRKQLAVKKYLNSILN-OH; UniProt P01282 125-152, looked up, variant M17L)
biological activity compared with VIP: only comparable to naturally occurring VIP
